SMILES strings stand for the structures. “Also recorded” adds a separate entry of the source.

Data on three compounds can be found in patent US5124157A, “Method and device for administering dexmedetomidine transdermally” (Cygnus Therapeutic Systems, priority 1989, dated 1992).

One series relates to alpha-2 receptor. The note with it: background, cited from earlier work; for activity/potency of the isomers (in words): isomers compared with each other.
Series [1] in a line: skin permeability, base versus salts (general statement). The class given is in vitro ADME. The note with it: free base vs its salts; no data given.
The conditions of series [2]: no data given; cited from earlier work.

In the case of `Cc1cccc(C(C)c2cnc[nH]2)c1C` (stereo not drawn) [Medetomidine, 4(5)-[alpha-methyl-2,3-dimethylbenzyl] imidazole], the “alpha-2 receptor agonist potency and selectivity (in words)” value in the series on alpha-2 receptor is “potent and selective alpha-2 receptor agonist”.
Consider `Cc1cccc([C@@H](C)c2cnc[nH]2)c1C` [Preparation 1-isomer], for which the “activity/potency of the isomers (in words)” value in the series on alpha-2 receptor is reported as “far less potent”.
For the compound `Cc1cccc([C@H](C)c2cnc[nH]2)c1C` [dexmedetomidine], the “skin permeability of base form relative to salts (in words)” value in series [1] is “the skin is somewhat more permeable to the base form of the drug than its salts”. Moreover, the “clearance rate from the body (in words)” value in series [2] is on record as “quite high; also recorded: relatively high”. Besides, the “activity/potency of the isomers (in words)” value in the series with alpha-2 receptor was “the active isomer”.
